For test [1], the system named is aged rats. In words: Morris water maze learning test in aged rats. It is filed as in vivo, rat. The settings on record: aged male rats of transgenic strain, test started on day 20 of treatment, vs control group. The procedure:
(§1) Male (3 to 27 months old) rats of transgenic strain were used. The aged rats were divided into the following four groups.
(§2) 1) Control group: Repeated administration of placebo pill.
(§3) 2) 4,4′-diaminodiphenylsulphone group: Repeated oral administration of 4,4 -diaminodiphenylsulphone 1 mg/kg.
(§4) 3) Cholinesterase inhibitor group: Repeated oral administration of donepezil 0.3 mg/kg.
(§5) 4) Combination group: Repeated oral administration of 4,4′-diaminodiphenylsulphone 3 mg/kg and donepezil 0.3 mg/kg.
(§6) In the combination group, 4,4′-diaminodiphenylsulphone was administered 30 minutes after administration of donepezil.
(§7) Passive avoidance learning test was started on day 14 of treatment, and Morris water maze learning test on day 20 of treatment.
(§8) On each day of experiment, 4,4′-diaminodiphenylsulphone and a cholinesterase inhibitor were administered 30 minutes and 1 hour, respectively, before initiation of the trial.
Same animals used in the passive avoidance test were subjected for the water maze task. However, some rats can not swim well in the water tank, thus they were excluded in the water maze task. The water maze learning test was performed on young rats (saline, 10 animals) and aged rats (control group, 9 animals; 4,4′-diaminodiphenylsulphone group, 9 animals; Compound B group, 8 animals; combination group, 8 animals). […]

Test [2] concerns aged rats. In words: Passive avoidance learning test in aged rats. Format: in vivo, rat. The settings on record: aged male rats of transgenic strain, test started on day 14 of treatment, vs control group. On the procedure: as §1, §2, §3, §4, §5, §6, §7, §8
The passive avoidance learning test was performed using a chamber consisting of light and dark compartments. […]
In each trial, the latency from opening of the slide door until the animal moved to the dark compartment (step-through latency) was measured.

As to `Nc1ccc(S(=O)(=O)c2ccc(N)cc2)cc1` [4,4′-diaminodiphenylsulphone], the “water maze learning deficit (latency to find platform submerged in the water)” value in test [1] (repeated oral 1 mg/kg) is listed as “significant improvement in water maze learning deficit”. The “passive avoidance learning deficit (step-through latency / avoidance time)” value in test [2] (repeated oral 1 mg/kg) is given as “significant improvement of the learning deficit”.

With `COc1cc2c(cc1OC)C(=O)C(CC1CCN(Cc3ccccc3)CC1)C2.Cl` (stereo not shown) [donepezil, 2,3-dihydro-5,6-dimethoxy-2-[[1-(phenylmethyl)-4-piperidinyl]methyl]-1H-inden-1-one hydrochloride], the “water maze learning deficit (latency to find platform submerged in the water)” value in test [1] (repeated oral 0.3 mg/kg) was “significant improvement in water maze learning deficit”. Moreover, the “passive avoidance learning deficit (step-through latency / avoidance time)” value in test [2] (repeated oral 0.3 mg/kg) is “significant improvement of the learning deficit”.

The record behind these values is US20030144255A1, “Compositions for prevention and treatment of dementia” (priority 2002, published 2003).
